From patent US9504657B2, “Fixed dose combination therapy of Parkinson's disease” (PHARMA TWO B LTD., priority 2012, dated 2016)

Key:
[1] = test system: Parkinson's disease patients; settings: 1 mg immediate release rasagiline added to pramipexole averaging 1.5 mg per day; cited from earlier work
[2] = test system: dopamine levels in mouse brain; assay: In vivo study of drugs in MPTP mice model of Parkinson's disease, striatal dopamine by HPLC; settings: IP daily 12 days, rasagiline 0.15 mg/Kg, pramipexole 0.12, 0.1, 0.075 mg/Kg, alone or combined
Description: Male C57B1/6 mice weighing 20+/−1 g are used (6-10 mice per group). MPTP is administrated by intraperitonealy (IP) injection at a dose of 40 mg/Kg per day for 5 days. Controls are naïve untreated mice injected with saline, and MPTP treated mice injected with saline (no drug treatment). Drugs, rasagiline (0.15 mg/Kg) and pramipexole (3 different doses of 0.12, 0.1 and 0.075 mg/Kg), are given alone or in 3 fixed dose combinations of rasagiline and pramipexole. The fixed dose combinations are composed of rasagiline at a constant dose of 0.15 mg/Kg and pramipexole at 3 different doses as indicated above. Both drugs are dissolved together at saline from their stock solutions to give the final desired combination dose. The application of the drugs is done daily intraperitonealy (IP) injection 30 minutes before MPTP administration. […] The effect of the treatments is assessed by measurement of dopamine and its metabolites (dihydroxyphenylacetic acid and Homovanillic acid) in left and right striatum together taken from the mice at the end of the experiment. […]
Striatum tissue samples are homogenized in ice in 500 μl homogenization buffer (0.1M perchloric acid, 0.02% EDTA and 1% ETOH) using OMNI Tip homogenizing kit of OMNI International (intermediate speed, 3×10 seconds with 5 seconds intervals). […] The supernatants are transferred into fresh tubes and Dopamine content is analyzed by HPLC. […]

C#CCN[C@@H]1CCc2ccccc21 [rasagiline]
combined effect on total UPDRS score, reduction compared to placebo [1]: 2.4 UPDRS points
effect of treatment on Dopamine levels compared to saline [2]: very low
